In US12583889B2, “Cell penetrating peptides” (Oxford University Innovation Limited, priority 2017, dated 2026):
Marks after values point to notes of the source that are not given here.

What was measured:
[1] = test system: SMN2 exon 7 inclusion in GM03813 SMA patient fibroblasts; test: Cell screening of peptide-PMO conjugates for SMN2 exon 7 inclusion in human SMA patient fibroblast cell culture; format: cell-based; conditions: for cell activity (SMN2 exon 7 inclusion): second screen, FIG. 5, qPCR; for cell activity (SMN2 exon 7 inclusion) / cell activity (SMN2 exon 7 inclusion) relative to peptide 14: 667 nM and 2 μM; for cell activity (SMN2 exon 7 inclusion) relative to peptide 14: first screen, FIG. 4, qPCR; for cell activity (SMN2 exon 7 inclusion) relative to S* peptide: FIG. 6, 4 μM, 2 μM, 1 μM, 500 nM, 250 nM
Experimental: In order to generate further peptide candidates containing a glycosylated Serine residue for in vivo evaluation, the inventors synthesized a range of similarly glycosylated peptides, conjugated them to the same PMO therapeutic and screened the resultant P-PMO conjugates in human SMA patient fibroblast cell culture, which assesses their ability to enter cell nuclei to give exon inclusion.
GM03813 (Coriell Institute) derived from SMA type I patient fibroblast were seeded out at 2500 cells/well in 100 μl Dulbecco's modified Eagle's medium (DMEM) with GlutaMAX and 5% fetal bovine serum (FBS) (Life Technologies, Inc.) in 96 well plates, and incubated for 16 h in a cell culture incubator (37° C., 5% CO2, 100% rel. humidity). On the next day cells were then treated with 10 μl P-PMO at different concentrations (in water) in duplicate for 24 hours. After removal of the supernatant, cells were washed once with PBS-buffer and were lysed in lysis buffer (10 mM Tris, 3 mM MgCl2, 1 mM CaCl2), 1% Triton X-100, 200 u/ml DNase I and 200 u/ml Proteinase K) for 10 min. Afterwards the lysate were transferred into a 96-well plate (Eppendorf twintec) and incubated at 75° C. for 15 min and subsequently cooled to 4° C. and used immediately. The mRNA levels of SMN2 FL, SMN2 Δ7 and GAPDH were quantified using Taqman-based qRT-PCR (Superscript® III Platinium® One Step qRT-PCR, Thermo Fisher) and SMN2 specific Primers and probes (purchased from IDT Integrated DNA Technologies). (19) SMN2 FL and Δ7 mRNAs were normalized to GAPDH. […]

human SMN2-gene = test: Full-length SMN2 transcript qPCR in tissues of adult SMA mice after intravenous peptide-PMO conjugate; format: in vivo; conditions: for full-length SMN2 transcripts, mean expression level, Brainstem / full-length SMN2 transcripts, mean expression level, Cerebellum / full-length SMN2 transcripts, mean expression level, Cortex / full-length SMN2 transcripts, mean expression level, Liver / full-length SMN2 transcripts, mean expression level, Gastroc / full-length SMN2 transcripts, mean expression level, Quad / full-length SMN2 transcripts, mean expression level, TA / full-length SMN2 transcripts, mean expression level, Cervical / full-length SMN2 transcripts, mean expression level, Lumbar / full-length SMN2 transcripts, mean expression level, Thoracic: adult SMA mice, 2x15 mg/kg IV approx. 48 hours apart, tissue 7 days post final administration, normalised to saline treated controls; for full-length SMN2 transcripts, mean expression level, Brainstem / full-length SMN2 transcripts, mean expression level, Cerebellum / full-length SMN2 transcripts, mean expression level, Cortex: Central Nervous System; for full-length SMN2 transcripts, mean expression level, Liver: Off Target; for full-length SMN2 transcripts, mean expression level, Gastroc: Skeletal Muscle (gastrocnemius); for full-length SMN2 transcripts, mean expression level, Quad: Skeletal Muscle (quadriceps); for full-length SMN2 transcripts, mean expression level, TA: Skeletal Muscle (tibialis anterior); for full-length SMN2 transcripts, mean expression level, Cervical / full-length SMN2 transcripts, mean expression level, Lumbar / full-length SMN2 transcripts, mean expression level, Thoracic: spinal cord
Description: Smn1tm1Hung/wt; […]; […] Tissues were harvested one week post administration. […] Statistical significance determined by Student'[…]≤0.00005. […] ID NO.151), Exons 7-8 Rev: [NT] ID NO.152). […] [NT] ID NO.154). […] PolJ Forward: [NT] ID NO.155); PolJ Reverse: [NT]

Substance: Ac-RS*RRBRRBRBRXR-G [Peptide 59]
- cell activity (SMN2 exon 7 inclusion) [1]: no significant alteration in activity levels

Substance: Ac-RRBRRBRS*FLRBRBRBR-G [Peptide 24]
- cell activity (SMN2 exon 7 inclusion) relative to peptide 14 [1]: less active than the first peptide 14

Substance: Ac-RBRRBRRBRS*FLRBRBRR-G [Peptide 33]
- cell activity (SMN2 exon 7 inclusion) relative to peptide 14 [1]: without a large loss in cell activity

Substance: Ac-RBRRBRRBRS*FLRBRRR-G [Peptide 34]
- cell activity (SMN2 exon 7 inclusion) relative to peptide 14 [1]: without a large loss in cell activity

Substance: Ac-RBRRBRRBR S*FL RBRBRBR-G [Peptide 18]
- cell activity (SMN2 exon 7 inclusion) relative to peptide 14 [1]: no significant effect on cell activity

Substance: Ac-RXRRBRRXRYQFLIRXRBRXR-B [Peptide 1]
- full-length SMN2 transcripts, mean expression level, Brainstem (human SMN2-gene): 1.48***
- full-length SMN2 transcripts, mean expression level, Cerebellum (human SMN2-gene): 1.25*
- full-length SMN2 transcripts, mean expression level, Cortex (human SMN2-gene): 1.29**
- full-length SMN2 transcripts, mean expression level, Liver (human SMN2-gene): 2.81
- full-length SMN2 transcripts, mean expression level, Gastroc (human SMN2-gene): 3.03***
- full-length SMN2 transcripts, mean expression level, Quad (human SMN2-gene): 3.37***
- full-length SMN2 transcripts, mean expression level, TA (human SMN2-gene): 3.30***
- full-length SMN2 transcripts, mean expression level, Cervical (human SMN2-gene): 1.50***
- full-length SMN2 transcripts, mean expression level, Lumbar (human SMN2-gene): 1.28***
- full-length SMN2 transcripts, mean expression level, Thoracic (human SMN2-gene): 1.45***

Substance: Ac-RRBRS*FLRBRBRBR-G [Peptide 26]
- cell activity (SMN2 exon 7 inclusion) relative to peptide 14 [1]: slightly less active only

Substance: Ac-RXRRBRRZS*RBRXR-B [Peptide 73]
- cell activity (SMN2 exon 7 inclusion) at low doses ([1]; third screen, FIG. 6): good activity at low doses
- cell activity (SMN2 exon 7 inclusion) relative to S* peptide ([1]; third screen): greatly improved alteration in activity levels

Substance: Ac-RXRRBRRFLRBRXR-B [Peptide 6]
- full-length SMN2 transcripts, mean expression level, Brainstem (human SMN2-gene): 1.38**
- full-length SMN2 transcripts, mean expression level, Cerebellum (human SMN2-gene): 1.05
- full-length SMN2 transcripts, mean expression level, Cortex (human SMN2-gene): 1.13
- full-length SMN2 transcripts, mean expression level, Liver (human SMN2-gene): 2.78
- full-length SMN2 transcripts, mean expression level, Gastroc (human SMN2-gene): 3.22****
- full-length SMN2 transcripts, mean expression level, Quad (human SMN2-gene): 2.89***
- full-length SMN2 transcripts, mean expression level, Cervical (human SMN2-gene): 0.88**
- full-length SMN2 transcripts, mean expression level, Lumbar (human SMN2-gene): 1.23*
- full-length SMN2 transcripts, mean expression level, Thoracic (human SMN2-gene): 1.37*

Substance: Ac-RXRRBRRS*S*RBRXR-G [Peptide 67]
- cell activity (SMN2 exon 7 inclusion) [1]: retained good activity in cells

Substance: Ac-RXRRBRRQFLRBRXR-B [Peptide 5]
- full-length SMN2 transcripts, mean expression level, Brainstem (human SMN2-gene): 1.22
- full-length SMN2 transcripts, mean expression level, Cerebellum (human SMN2-gene): 1
- full-length SMN2 transcripts, mean expression level, Cortex (human SMN2-gene): 1.11
- full-length SMN2 transcripts, mean expression level, Liver (human SMN2-gene): 2.73
- full-length SMN2 transcripts, mean expression level, Gastroc (human SMN2-gene): 2.49****
- full-length SMN2 transcripts, mean expression level, Quad (human SMN2-gene): 2.46****
- full-length SMN2 transcripts, mean expression level, TA (human SMN2-gene): 2.80****
- full-length SMN2 transcripts, mean expression level, Cervical (human SMN2-gene): 1.24*
- full-length SMN2 transcripts, mean expression level, Lumbar (human SMN2-gene): 1.25*
- full-length SMN2 transcripts, mean expression level, Thoracic (human SMN2-gene): 1.23

Substance: Ac-RXRRBRRYQFLIRBRXR-B [Peptide 4]
- full-length SMN2 transcripts, mean expression level, Brainstem (human SMN2-gene): 0.98
- full-length SMN2 transcripts, mean expression level, Cerebellum (human SMN2-gene): 0.96
- full-length SMN2 transcripts, mean expression level, Cortex (human SMN2-gene): 1.1
- full-length SMN2 transcripts, mean expression level, Liver (human SMN2-gene): 3.26
- full-length SMN2 transcripts, mean expression level, Gastroc (human SMN2-gene): 3.64****
- full-length SMN2 transcripts, mean expression level, Quad (human SMN2-gene): 2.70****
- full-length SMN2 transcripts, mean expression level, TA (human SMN2-gene): 4.23****
- full-length SMN2 transcripts, mean expression level, Cervical (human SMN2-gene): 1.14*
- full-length SMN2 transcripts, mean expression level, Lumbar (human SMN2-gene): 1
- full-length SMN2 transcripts, mean expression level, Thoracic (human SMN2-gene): 1.12

Substance: Ac-RBRBRS*RBRBR-G [Peptide 70]
- cell activity (SMN2 exon 7 inclusion) [1]: remarkably good activity

Substance: Ac-RBRRBRRBRS*FLRBRBR-G [Peptide 29]
- cell activity (SMN2 exon 7 inclusion) relative to peptide 14 [1]: less active than the first peptide 14

Substance: Ac-RBRRBRRRS*FLRBRBRBR-G [Peptide 36]
- cell activity (SMN2 exon 7 inclusion) relative to peptide 14 [1]: without a large loss in cell activity

Substance: Ac-RXRRBRRXRRXRBRXRS*FL-G [Peptide 48]
- cell activity (SMN2 exon 7 inclusion) relative to peptide 14 [1]: almost as active as the first peptide

Substance: Ac-RXRRBRRXRS*FRXRBRXR-G [Peptide 43]
- cell activity (SMN2 exon 7 inclusion) relative to peptide 14 [1]: only a slightly reduced activity

Substance: Ac-RXRRBRFQILYRBRXR-B [Peptide 7]
- full-length SMN2 transcripts, mean expression level, Brainstem (human SMN2-gene): 1.11
- full-length SMN2 transcripts, mean expression level, Cerebellum (human SMN2-gene): 0.97
- full-length SMN2 transcripts, mean expression level, Cortex (human SMN2-gene): 1.01
- full-length SMN2 transcripts, mean expression level, Liver (human SMN2-gene): 3.19
- full-length SMN2 transcripts, mean expression level, Gastroc (human SMN2-gene): 2.92****
- full-length SMN2 transcripts, mean expression level, Quad (human SMN2-gene): 2.80****
- full-length SMN2 transcripts, mean expression level, TA (human SMN2-gene): 3.34****
- full-length SMN2 transcripts, mean expression level, Cervical (human SMN2-gene): 1.26
- full-length SMN2 transcripts, mean expression level, Lumbar (human SMN2-gene): 0.97
- full-length SMN2 transcripts, mean expression level, Thoracic (human SMN2-gene): 1.33

Substance: Ac-RXRRBRRXRQFLRXRBRXR-B [Peptide 2]
- full-length SMN2 transcripts, mean expression level, Brainstem (human SMN2-gene): 1.36***
- full-length SMN2 transcripts, mean expression level, Cerebellum (human SMN2-gene): 1.15*
- full-length SMN2 transcripts, mean expression level, Cortex (human SMN2-gene): 1.16*
- full-length SMN2 transcripts, mean expression level, Liver (human SMN2-gene): 2.91
- full-length SMN2 transcripts, mean expression level, Gastroc (human SMN2-gene): 2.98****
- full-length SMN2 transcripts, mean expression level, Quad (human SMN2-gene): 2.52****
- full-length SMN2 transcripts, mean expression level, TA (human SMN2-gene): 3.45****
- full-length SMN2 transcripts, mean expression level, Cervical (human SMN2-gene): 1.78**
- full-length SMN2 transcripts, mean expression level, Lumbar (human SMN2-gene): 1.48**
- full-length SMN2 transcripts, mean expression level, Thoracic (human SMN2-gene): 1.49*

Substance: Ac-RXRXRS*RXRXR-G [Peptide 71]
- cell activity (SMN2 exon 7 inclusion) [1]: remarkably good activity

Substance: Ac-RXRRBRRXR S*FLRXRBRXR-BB [Peptide 14]
- cell penetration in several compartments of the central nervous system and the skeletal muscle compared with currently available peptides 1-7 (human SMN2-gene; Table 3 data): increased
- full-length SMN2 transcripts, mean expression level, Brainstem (human SMN2-gene): 1.97***
- full-length SMN2 transcripts, mean expression level, Cerebellum (human SMN2-gene): 1.26
- full-length SMN2 transcripts, mean expression level, Cortex (human SMN2-gene): 1.50*
- full-length SMN2 transcripts, mean expression level, Liver (human SMN2-gene): 3.45
- full-length SMN2 transcripts, mean expression level, Gastroc (human SMN2-gene): 2.82****
- full-length SMN2 transcripts, mean expression level, Quad (human SMN2-gene): 2.45***
- full-length SMN2 transcripts, mean expression level, TA (human SMN2-gene): 3.24****
- full-length SMN2 transcripts, mean expression level, Cervical (human SMN2-gene): 1.23**
- full-length SMN2 transcripts, mean expression level, Lumbar (human SMN2-gene): 2.23
- full-length SMN2 transcripts, mean expression level, Thoracic (human SMN2-gene): 2.38**
- increase in cell penetration / exon inclusion compared with the currently available peptide conjugated to the same antisense oligonucleotide (human SMN2-gene; in vivo, Table 3 data, peptide 17 versus peptide 6, peptide 14 versus peptide 2): up to 59.7%

Substance: Ac-RXRRS*RRBRBRXR-G [Peptide 58]
- cell activity (SMN2 exon 7 inclusion) [1]: no significant alteration in activity levels

Substance: Ac-RXRRBRRFQILYRBRXR-B [Peptide 3]
- full-length SMN2 transcripts, mean expression level, Brainstem (human SMN2-gene): 0.86
- full-length SMN2 transcripts, mean expression level, Cerebellum (human SMN2-gene): 1.025
- full-length SMN2 transcripts, mean expression level, Cortex (human SMN2-gene): 0.93
- full-length SMN2 transcripts, mean expression level, Liver (human SMN2-gene): 4.57
- full-length SMN2 transcripts, mean expression level, Gastroc (human SMN2-gene): 3.4
- full-length SMN2 transcripts, mean expression level, Quad (human SMN2-gene): 3.35****
- full-length SMN2 transcripts, mean expression level, TA (human SMN2-gene): 3.95***
- full-length SMN2 transcripts, mean expression level, Cervical (human SMN2-gene): 0.92
- full-length SMN2 transcripts, mean expression level, Lumbar (human SMN2-gene): 1.1
- full-length SMN2 transcripts, mean expression level, Thoracic (human SMN2-gene): 1

Substance: Ac-RXRRBRRS*S*S* RBRXR-G [Peptide 68]
- cell activity (SMN2 exon 7 inclusion) [1]: retained good activity in cells

Substance: Ac-RXRRBRRFS^1*RBRXR-B [Peptide 74]
- cell activity (SMN2 exon 7 inclusion) relative to S* peptide ([1]; third screen): Improved activity

Substance: Ac-RXRRBRRXRS*RXRBRXR-G [Peptide 44]
- cell activity (SMN2 exon 7 inclusion) relative to peptide 14 [1]: no significant effect on cell activity

Substance: Ac-RBRRRRRS*FLRBRBRBR-G [Peptide 37]
- cell activity (SMN2 exon 7 inclusion) relative to peptide 14 [1]: without a large loss in cell activity
